Where two headings read alike, the source gives them in different places. Marks after values point to notes of the source that are not given here.
Experiments:
[1] = system: F. graminearum; assay type: in vivo, Fusarium graminearum; details: wheat Trappe, ear treated, versus untreated half of plot
[2] = system: F. graminearum; assay type: in vivo, Fusarium graminearum; details: wheat Capo; versus control
[3] = system: F. graminearum; assay type: in vivo, Fusarium graminearum; details: wheat Capo, Lennox, Trappe, Kronjet, ear treated, FHB assessed 21 days after anthesis, versus untreated control
[4] = system: Plasmopara viticola; test: Grapevine leaf disc assay (downy mildew, Peronospora); assay type: in vivo; details: grapevine leaf discs, 5 days at 23° C.; diseased disk area versus control
Procedure: Exemplary tests for reduction of Peronospora symptoms were carried out on grapevine leaf discs as follows. Ten leaf discs were first inoculated with prototypes for 20 min and then treated with a spore suspension (20000 sporangia/ml) of the fungus until zoospores were released from the sporangia. Afterwards, leaf disks were placed on water agar plates and incubated for 5 days at 23° C. (16 h light/8 h darkness). Consequently, disease severity was calculated by measurement of the percentage of diseased disk area. Control treatments were included by either using water or by application of the copper-based, commercially available plant protection product Cuprozin.

## O=C([O-])[O-].[Ca+2] [Prototype W25, Calcium carbonate from natural resources]
[1]; listed as Calcium carbonate
  Reduction of Symptoms (Disease incidence %): 13%
[1]; listed as W25
  Reduction of Symptoms (Disease incidence %): 13* %

## O=C([O-])[O-].[Ca+2] [Prototype W24, Calcium carbonate from natural resources]
[2]
  Reduction of Symptoms (%) Disease incidence %: ns
  Reduction of Symptoms (%) Disease intensity %: no significant effect and ns
  Reduction of Symptoms (%) Disease severity %: ns

## Sodium silicium oxide [Prototype W4]
[3]; listed as Silicium
  Reduction of Symptoms (Disease incidence %): no influence
[3]; listed as W4
  Reduction of Symptoms (Disease incidence %): ns

## [Ca+2].[Cl-].[Cl-] [Prototype G1, Calcium chloride]
[4]
  Reduction of Symptoms (Disease Severity %): 50.9** %

## [Ca+2].[Cl-].[Cl-] [Prototype W2, Calcium chloride]
[3]
  Reduction of Symptoms (Disease incidence %): 29%

## [Cl-].[Cl-].[Mg+2] [Prototype W3, Magnesium chloride]
[3]; listed as W3
  Reduction of Symptoms (Disease incidence %): ns
[3]; listed as magnesium
  Reduction of Symptoms (Disease incidence %): no influence

Reference: patent US20230380427A1 (priority 2020, published 2023)
